Key:
Assay type in all cases: functional
[1] = target: Histamine H1 receptor (Homo sapiens) (UniProt P35367); assay: Agonist activity at recombinant human histamine H1 receptor at 10 uM by aequorin reporter based assay relative to agonist
[2] = target: Beta-2 adrenergic receptor (Homo sapiens) (UniProt P07550); assay: Antagonist activity at recombinant human beta-2 adrenergic receptor assessed as inhibition of agonist-induced cAMP induction at 10 uM by HTRF assay
[3] = target: T1, Substance-K receptor (Homo sapiens) (UniProt P21452); assay: Antagonist activity at recombinant human NK2R assessed as inhibition of agonist-induced effect at 10 uM by aequorin reporter based assay
T1 sequence (whole entry): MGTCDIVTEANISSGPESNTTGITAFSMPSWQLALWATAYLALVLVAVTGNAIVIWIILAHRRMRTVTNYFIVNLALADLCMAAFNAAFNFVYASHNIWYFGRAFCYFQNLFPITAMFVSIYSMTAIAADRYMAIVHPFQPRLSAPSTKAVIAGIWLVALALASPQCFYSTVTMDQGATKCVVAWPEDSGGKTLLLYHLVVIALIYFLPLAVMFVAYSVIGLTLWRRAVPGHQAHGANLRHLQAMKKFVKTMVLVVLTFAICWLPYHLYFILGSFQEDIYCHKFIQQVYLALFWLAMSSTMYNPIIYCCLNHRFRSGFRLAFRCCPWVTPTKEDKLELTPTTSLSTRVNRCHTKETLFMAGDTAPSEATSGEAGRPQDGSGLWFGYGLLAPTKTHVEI

[4] = target: T2, Muscarinic acetylcholine receptor M4 (Homo sapiens) (UniProt P08173); assay: Antagonist activity at human muscarinic M4 receptor assessed as inhibition of agonist-induced effect at 10 uM by GTPgamma[35S] binding-based assay
T2 sequence (whole entry): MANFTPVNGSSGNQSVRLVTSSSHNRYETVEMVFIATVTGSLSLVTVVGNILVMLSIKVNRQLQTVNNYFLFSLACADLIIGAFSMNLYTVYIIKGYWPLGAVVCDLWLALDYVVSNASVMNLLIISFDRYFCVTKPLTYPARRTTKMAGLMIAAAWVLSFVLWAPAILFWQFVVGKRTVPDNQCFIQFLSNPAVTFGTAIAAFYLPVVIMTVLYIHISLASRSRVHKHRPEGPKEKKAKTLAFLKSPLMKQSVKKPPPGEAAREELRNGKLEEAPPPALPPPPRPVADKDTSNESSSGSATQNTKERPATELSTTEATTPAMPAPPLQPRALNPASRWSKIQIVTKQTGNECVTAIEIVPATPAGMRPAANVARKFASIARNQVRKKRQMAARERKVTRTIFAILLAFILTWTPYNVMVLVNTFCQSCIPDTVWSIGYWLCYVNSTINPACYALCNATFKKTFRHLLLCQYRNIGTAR

[5] = target: 5-hydroxytryptamine receptor 2B (Homo sapiens) (UniProt P41595); assay: Antagonist activity at recombinant human 5-HT2B assessed as inhibition of agonist-induced effect at 10 uM by aequorin reporter based assay
[6] = target: Beta-1 adrenergic receptor (Homo sapiens) (UniProt P08588); assay: Agonist activity at recombinant human beta-1 adrenergic receptor assessed as induction of cAMP levels at 10 uM by HTRF assay relative to agonist
[7] = target: T3, Alpha-1A adrenergic receptor (Homo sapiens) (UniProt P35348); assay: Antagonist activity at recombinant human alpha-1a adrenergic receptor assessed as inhibition of agonist-induced […] reporter based assay
T3 sequence (whole entry): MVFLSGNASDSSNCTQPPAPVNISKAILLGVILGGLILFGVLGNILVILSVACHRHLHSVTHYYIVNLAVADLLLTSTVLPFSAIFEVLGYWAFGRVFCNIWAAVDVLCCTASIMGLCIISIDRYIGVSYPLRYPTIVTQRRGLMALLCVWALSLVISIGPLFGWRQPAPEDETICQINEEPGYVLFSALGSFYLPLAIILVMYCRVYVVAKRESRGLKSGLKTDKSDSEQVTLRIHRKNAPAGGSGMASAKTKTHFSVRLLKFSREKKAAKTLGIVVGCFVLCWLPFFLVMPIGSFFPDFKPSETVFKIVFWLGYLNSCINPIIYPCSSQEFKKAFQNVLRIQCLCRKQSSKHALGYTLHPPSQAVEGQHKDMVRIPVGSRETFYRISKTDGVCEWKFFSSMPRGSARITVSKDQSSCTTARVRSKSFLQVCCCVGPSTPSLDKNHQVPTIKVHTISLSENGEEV

[8] = target: Beta-2 adrenergic receptor (Homo sapiens) (UniProt P07550); assay: Agonist activity at recombinant human beta-2 adrenergic receptor assessed as induction of cAMP levels at 10 uM by HTRF assay relative to agonist
[9] = target: Delta-type opioid receptor (Homo sapiens) (UniProt P41143); assay: Agonist activity at recombinant human delta-type opioid receptor at 10 uM by GTPgamma[35S] binding-based assay relative to agonist
[10] = target: T2, Muscarinic acetylcholine receptor M4 (Homo sapiens); assay: Agonist activity at recombinant human muscarinic M4 receptor at 10 uM by GTPgamma[35S] binding-based assay relative to agonist
[11] = target: T4, 5-hydroxytryptamine receptor 2C (Homo sapiens) (UniProt P28335); assay: Agonist activity at recombinant human 5-HT2C at 10 uM by aequorin reporter based assay relative to agonist
T4 sequence (whole entry): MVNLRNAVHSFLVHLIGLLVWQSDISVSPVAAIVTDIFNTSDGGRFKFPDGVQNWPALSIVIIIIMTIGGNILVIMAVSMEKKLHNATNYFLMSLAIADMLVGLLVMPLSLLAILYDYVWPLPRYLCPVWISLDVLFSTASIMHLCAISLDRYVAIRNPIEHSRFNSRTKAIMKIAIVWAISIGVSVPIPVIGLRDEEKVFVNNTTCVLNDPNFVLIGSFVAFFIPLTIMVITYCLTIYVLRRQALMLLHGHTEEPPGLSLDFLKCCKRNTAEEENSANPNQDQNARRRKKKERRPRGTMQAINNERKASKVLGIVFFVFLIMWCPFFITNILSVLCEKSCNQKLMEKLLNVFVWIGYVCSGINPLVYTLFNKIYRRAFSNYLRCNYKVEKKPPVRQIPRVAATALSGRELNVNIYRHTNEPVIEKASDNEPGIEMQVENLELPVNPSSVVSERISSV

[12] = target: 5-hydroxytryptamine receptor 1B (Homo sapiens) (UniProt P28222); assay: Agonist activity at recombinant human 5-HT1B at 10 uM by GTPgamma[35S] binding-based assay relative to agonist
Chain of 5-hydroxytryptamine receptor 1B (Homo sapiens) (P28222 whole entry): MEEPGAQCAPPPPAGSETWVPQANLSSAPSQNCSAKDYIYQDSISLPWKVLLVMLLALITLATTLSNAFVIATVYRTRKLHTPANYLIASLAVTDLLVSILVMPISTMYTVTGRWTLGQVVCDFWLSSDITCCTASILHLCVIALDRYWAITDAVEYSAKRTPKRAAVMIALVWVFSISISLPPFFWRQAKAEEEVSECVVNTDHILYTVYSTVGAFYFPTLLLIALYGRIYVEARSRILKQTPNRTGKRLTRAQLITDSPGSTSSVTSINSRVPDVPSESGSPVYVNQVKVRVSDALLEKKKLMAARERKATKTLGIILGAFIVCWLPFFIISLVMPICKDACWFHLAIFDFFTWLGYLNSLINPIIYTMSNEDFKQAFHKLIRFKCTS

Chain of Histamine H1 receptor (Homo sapiens) (P35367 whole entry): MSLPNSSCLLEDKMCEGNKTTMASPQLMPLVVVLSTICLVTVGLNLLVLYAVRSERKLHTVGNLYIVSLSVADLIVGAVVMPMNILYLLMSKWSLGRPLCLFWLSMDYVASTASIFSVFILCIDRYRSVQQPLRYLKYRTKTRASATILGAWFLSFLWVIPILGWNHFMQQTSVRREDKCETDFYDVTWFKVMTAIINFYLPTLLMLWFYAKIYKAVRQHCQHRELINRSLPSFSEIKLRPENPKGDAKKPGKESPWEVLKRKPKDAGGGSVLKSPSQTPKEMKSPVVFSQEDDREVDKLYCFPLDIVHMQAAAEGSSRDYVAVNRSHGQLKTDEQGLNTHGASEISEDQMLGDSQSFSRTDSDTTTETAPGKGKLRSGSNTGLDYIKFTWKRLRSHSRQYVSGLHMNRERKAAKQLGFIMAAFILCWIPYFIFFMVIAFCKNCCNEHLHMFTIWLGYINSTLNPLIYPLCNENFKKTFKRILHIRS
Chain of Delta-type opioid receptor (Homo sapiens) (P41143 whole entry): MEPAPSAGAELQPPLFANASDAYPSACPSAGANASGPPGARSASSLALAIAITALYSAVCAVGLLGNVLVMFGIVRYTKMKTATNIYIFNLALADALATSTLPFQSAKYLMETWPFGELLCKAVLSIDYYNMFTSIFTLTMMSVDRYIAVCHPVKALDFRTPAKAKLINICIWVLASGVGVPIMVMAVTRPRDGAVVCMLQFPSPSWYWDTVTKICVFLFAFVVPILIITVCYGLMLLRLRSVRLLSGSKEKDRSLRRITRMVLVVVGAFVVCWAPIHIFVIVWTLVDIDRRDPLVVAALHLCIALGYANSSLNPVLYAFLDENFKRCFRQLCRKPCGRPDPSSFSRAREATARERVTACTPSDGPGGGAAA
Chain of 5-hydroxytryptamine receptor 2B (Homo sapiens) (P41595 whole entry): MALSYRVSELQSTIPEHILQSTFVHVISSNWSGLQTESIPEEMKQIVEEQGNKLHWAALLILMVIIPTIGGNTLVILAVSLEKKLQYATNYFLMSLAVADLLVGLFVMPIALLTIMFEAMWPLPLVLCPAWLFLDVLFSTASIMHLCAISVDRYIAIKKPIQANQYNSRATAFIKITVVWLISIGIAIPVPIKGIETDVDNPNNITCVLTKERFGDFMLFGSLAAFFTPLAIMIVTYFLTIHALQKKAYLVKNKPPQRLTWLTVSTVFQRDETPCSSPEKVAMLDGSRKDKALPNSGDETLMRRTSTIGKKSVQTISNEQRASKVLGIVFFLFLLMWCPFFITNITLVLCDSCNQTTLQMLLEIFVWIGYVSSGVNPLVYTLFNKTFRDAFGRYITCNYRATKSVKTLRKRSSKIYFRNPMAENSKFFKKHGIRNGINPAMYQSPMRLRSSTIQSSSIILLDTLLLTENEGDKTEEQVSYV
Chain of Beta-2 adrenergic receptor (Homo sapiens) (P07550 whole entry, looked up): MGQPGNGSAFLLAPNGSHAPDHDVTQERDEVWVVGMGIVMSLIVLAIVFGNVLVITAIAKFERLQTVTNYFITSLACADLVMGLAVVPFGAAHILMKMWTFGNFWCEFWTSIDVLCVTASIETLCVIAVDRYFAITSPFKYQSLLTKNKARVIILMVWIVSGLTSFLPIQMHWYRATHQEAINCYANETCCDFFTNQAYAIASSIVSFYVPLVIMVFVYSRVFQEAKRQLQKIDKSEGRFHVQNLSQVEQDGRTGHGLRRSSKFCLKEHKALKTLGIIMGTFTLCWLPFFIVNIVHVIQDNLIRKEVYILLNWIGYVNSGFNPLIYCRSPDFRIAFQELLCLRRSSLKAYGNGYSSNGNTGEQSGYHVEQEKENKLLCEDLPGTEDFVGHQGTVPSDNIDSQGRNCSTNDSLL
Chain of Beta-1 adrenergic receptor (Homo sapiens) (P08588 whole entry, looked up): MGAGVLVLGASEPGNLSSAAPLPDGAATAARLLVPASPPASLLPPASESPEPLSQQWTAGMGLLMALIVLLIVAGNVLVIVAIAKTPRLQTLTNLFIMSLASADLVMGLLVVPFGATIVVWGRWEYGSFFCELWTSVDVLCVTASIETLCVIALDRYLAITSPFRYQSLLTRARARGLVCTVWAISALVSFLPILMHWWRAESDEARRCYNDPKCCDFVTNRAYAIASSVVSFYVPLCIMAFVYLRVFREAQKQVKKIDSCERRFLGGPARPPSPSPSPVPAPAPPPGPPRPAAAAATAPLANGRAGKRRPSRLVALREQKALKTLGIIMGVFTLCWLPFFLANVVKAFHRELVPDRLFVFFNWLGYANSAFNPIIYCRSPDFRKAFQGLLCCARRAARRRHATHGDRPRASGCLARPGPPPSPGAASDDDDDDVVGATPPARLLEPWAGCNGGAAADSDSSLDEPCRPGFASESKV

| Structure (SMILES) | Activity [1] | inhibition [2] | inhibition [3] | inhibition [4] | inhibition [5] | Activity [6] | inhibition [7] | Activity [8] | Activity [9] | Activity [10] | Activity [11] | Activity [12] |
| --- | --- | --- | --- | --- | --- | --- | --- | --- | --- | --- | --- | --- |
| CN(CCNC(=O)c1ccc([N+](=O)[O-])cc1)Cc1ccccc1 | 0% | 3% | 15% | 26% | 35% | -3% | 62% | 3% | 0% | 0% | 13% | -10% |
| CN(CCCNC(=O)c1ccc(Cl)cc1)CCc1ccccc1 | 12% | 2% | 5% | 18% | 92% | 18% | 95% | 2% | 0% | -8% | 75% | 1% |
| CN(CCNC(=O)c1ccc(C#N)cc1)Cc1ccccc1 | 0% | 2% | 29% | 25% | 16% | -5% | 56% | 0% | -2% | -1% | -1% | -12% |
| CN(CCCNC(=O)c1ccc(C(F)(F)F)cc1)Cc1ccccc1 | 0% | 4% | 6% | 23% | 66% | 2% | 79% | 1% | 3% | -4% | -7% | -1% |
| CN(CCNC(=O)c1ccc(Cl)cc1)Cc1ccccc1 | 0% | 1% | 6% | 13% | 66% | 7% | 96% | 0% | 1% | -4% | 62% | 4% |

More lines, now with the values ahead:

| Activity [1] | inhibition [2] | inhibition [3] | inhibition [4] | inhibition [5] | Activity [6] | inhibition [7] | Activity [8] | Activity [9] | Activity [10] | Activity [11] | Activity [12] | Structure (SMILES) |
| --- | --- | --- | --- | --- | --- | --- | --- | --- | --- | --- | --- | --- |
| 0% | 1% | 9% | -7% | 26% | 3% | 95% | -2% | -1% | -5% | 2% | 7% | CN(CCCNC(=O)c1ccc([N+](=O)[O-])cc1)Cc1ccccc1 |
| 0% | 4% | 22% | 25% | 16% | -12% | 52% | 8% | -6% | -1% | 5% | 7% | COc1ccc(C(=O)NCCCN(C)Cc2ccccc2)cc1 |
| 1% | 0% | 18% | 19% | 58% | 4% | 92% | 1% | 0% | -8% | 12% | 7% | CN(CCCNC(=O)c1ccc(Cl)cc1)Cc1ccccc1 |
| 14% | 2% | 19% | 21% | 26% | -10% | 82% | 8% | -4% | -2% | 5% | -12% | COc1cccc(C(=O)NCCCN(C)Cc2ccccc2)c1 |
| 1% | -1% | 7% | 20% | 37% | 2% | 93% | 2% | 1% | -10% | 11% | 10% | CN(CCCNC(=O)c1ccc(Br)cc1)Cc1ccccc1 |
| 0% | 8% | 5% | 33% | 75% | 6% | 96% | 6% | 1% | -10% | 63% | 55% | CCCc1ccc(C(=O)NCCCN(C)Cc2ccccc2)cc1 |
| 35% | 0% | 9% | 33% | 78% | 10% | 97% | 1% | -1% | -12% | -3% | 1% | CN(CCCNC(=O)c1cccc(Br)c1)Cc1ccccc1 |
